Values of other authors, collected in patent US20250090476A1, “PHARMACEUTICAL COMPOSITION AND BREXPIPRAZOLE ORALLY SOLUABLE FILM” (WISDOM PHARMACEUTICAL CO., LTD., priority 2022, published 2025).

In the case of `O=c1ccc2ccc(OCCCCN3CCN(c4cccc5sccc45)CC3)cc2[nH]1` [Brexpiprazole], the solubility is listed as “low”.
